Key:
[1] = molecular target: T1, Neuropeptide Y receptor type 2 (Homo sapiens, UniProt P49146); assay type: cell membranes, Membrane; details: kan-ts; further: in other assays of this panel Not Active means under 50% inhibition at 10 µM
T1 sequence (P49146 whole entry): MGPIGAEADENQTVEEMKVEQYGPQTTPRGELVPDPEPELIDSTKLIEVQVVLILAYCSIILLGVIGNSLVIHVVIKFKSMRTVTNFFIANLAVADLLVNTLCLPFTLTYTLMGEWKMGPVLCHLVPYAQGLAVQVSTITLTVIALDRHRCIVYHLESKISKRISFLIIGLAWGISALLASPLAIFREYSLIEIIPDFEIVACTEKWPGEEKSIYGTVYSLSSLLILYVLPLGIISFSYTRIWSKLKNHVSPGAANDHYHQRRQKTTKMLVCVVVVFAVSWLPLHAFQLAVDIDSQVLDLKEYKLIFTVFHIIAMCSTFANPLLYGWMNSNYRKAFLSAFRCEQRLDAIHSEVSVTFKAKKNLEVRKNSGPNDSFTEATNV

[2] = molecular target: Voltage-gated inwardly rectifying potassium channel KCNH2 (Homo sapiens, UniProt Q12809); details: hek293; further: in other assays of this panel Not Active means under 50% inhibition at 10 µM
[3] = molecular target: Cytochrome P450 2E1 (Homo sapiens, UniProt P05181); details: bti-tn-5b1-4; further: in other assays of this panel Not Active means under 50% inhibition at 10 µM
[4] = molecular target: T2, C-C chemokine receptor type 4 (Homo sapiens, UniProt P51679); assay type: cell membranes, Membrane; details: chem-1; further: in other assays of this panel Not Active means under 50% inhibition at 10 µM
T2 sequence (P51679 whole entry): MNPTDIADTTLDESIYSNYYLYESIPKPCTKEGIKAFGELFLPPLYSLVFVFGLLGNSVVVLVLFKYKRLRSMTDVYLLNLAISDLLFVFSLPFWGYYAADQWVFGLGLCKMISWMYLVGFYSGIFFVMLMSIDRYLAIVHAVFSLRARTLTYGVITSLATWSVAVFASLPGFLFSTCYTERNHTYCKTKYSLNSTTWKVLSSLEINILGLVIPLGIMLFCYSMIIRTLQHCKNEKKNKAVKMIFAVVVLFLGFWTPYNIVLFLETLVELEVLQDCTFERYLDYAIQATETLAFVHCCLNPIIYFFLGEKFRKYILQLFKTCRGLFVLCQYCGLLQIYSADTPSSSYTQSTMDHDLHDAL

[5] = DRUGMATRIX: Glutamate, NMDA, Phencyclidine radioligand binding (ligand: [3H] TCP); assay type: cell membranes, Rattus norvegicus, Wistar, Cerebral cortex, Membrane; details: Not Active = under 50% inhibition at 10 µM
[6] = molecular target: Substance-P receptor (Homo sapiens, UniProt P25103); assay type: cell membranes, Membrane; details: cho; further: in other assays of this panel Not Active means under 50% inhibition at 10 µM
[7] = molecular target: Melanocortin receptor 3 (Homo sapiens, UniProt P41968); assay type: cell membranes, Membrane; details: hek293; further: in other assays of this panel Not Active means under 50% inhibition at 10 µM
[8] = DRUGMATRIX: Calcium Channel Type L, Dihydropyridine radioligand binding (ligand: [3H] Nitrendipine); assay type: cell membranes, Rattus norvegicus, Wistar, Cerebral cortex, Membrane; details: Not Active = under 50% inhibition at 10 µM
[9] = DRUGMATRIX: Leukotriene, BLT (LTB4) radioligand binding (ligand: [3H]LTB4); assay type: cell membranes, Membrane; details: u-937; Not Active = under 50% inhibition at 10 µM
[10] = molecular target: T3, Cysteinyl leukotriene receptor 1 (Homo sapiens, UniProt Q9Y271); assay type: cell membranes, Membrane; details: cho-k1; further: in other assays of this panel Not Active means under 50% inhibition at 10 µM
T3 sequence (Q9Y271 whole entry): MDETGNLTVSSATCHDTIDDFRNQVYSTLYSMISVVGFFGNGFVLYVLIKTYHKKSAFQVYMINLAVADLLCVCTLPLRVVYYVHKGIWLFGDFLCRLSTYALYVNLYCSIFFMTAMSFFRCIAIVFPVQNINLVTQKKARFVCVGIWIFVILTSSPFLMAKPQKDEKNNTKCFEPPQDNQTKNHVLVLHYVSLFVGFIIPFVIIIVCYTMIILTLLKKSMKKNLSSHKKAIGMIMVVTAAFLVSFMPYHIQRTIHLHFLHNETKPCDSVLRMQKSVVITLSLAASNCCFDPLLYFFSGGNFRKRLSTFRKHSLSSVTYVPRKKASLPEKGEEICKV

Sequence of Cytochrome P450 2E1 (P05181 whole entry): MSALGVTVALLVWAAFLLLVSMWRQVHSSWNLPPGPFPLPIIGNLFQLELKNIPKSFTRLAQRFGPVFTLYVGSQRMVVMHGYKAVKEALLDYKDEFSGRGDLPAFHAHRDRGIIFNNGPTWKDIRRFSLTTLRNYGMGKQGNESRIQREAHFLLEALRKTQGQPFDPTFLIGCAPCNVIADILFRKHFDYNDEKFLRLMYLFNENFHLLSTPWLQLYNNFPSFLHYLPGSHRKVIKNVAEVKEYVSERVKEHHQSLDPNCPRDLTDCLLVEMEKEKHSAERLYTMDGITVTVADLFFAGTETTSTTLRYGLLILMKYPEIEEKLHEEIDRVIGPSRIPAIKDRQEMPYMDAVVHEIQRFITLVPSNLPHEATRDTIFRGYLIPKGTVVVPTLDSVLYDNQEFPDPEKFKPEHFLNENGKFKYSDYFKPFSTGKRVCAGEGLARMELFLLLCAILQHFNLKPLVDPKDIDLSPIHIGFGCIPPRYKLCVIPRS
Sequence of Melanocortin receptor 3 (P41968 whole entry): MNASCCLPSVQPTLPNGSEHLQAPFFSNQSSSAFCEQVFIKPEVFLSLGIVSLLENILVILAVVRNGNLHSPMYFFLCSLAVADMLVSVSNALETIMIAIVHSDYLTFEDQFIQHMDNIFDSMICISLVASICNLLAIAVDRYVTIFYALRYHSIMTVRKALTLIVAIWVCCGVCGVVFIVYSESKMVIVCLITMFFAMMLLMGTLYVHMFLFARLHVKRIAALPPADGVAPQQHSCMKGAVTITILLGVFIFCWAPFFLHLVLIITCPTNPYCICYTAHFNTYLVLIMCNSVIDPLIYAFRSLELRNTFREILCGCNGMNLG
Sequence of Voltage-gated inwardly rectifying potassium channel KCNH2 (Q12809 whole entry): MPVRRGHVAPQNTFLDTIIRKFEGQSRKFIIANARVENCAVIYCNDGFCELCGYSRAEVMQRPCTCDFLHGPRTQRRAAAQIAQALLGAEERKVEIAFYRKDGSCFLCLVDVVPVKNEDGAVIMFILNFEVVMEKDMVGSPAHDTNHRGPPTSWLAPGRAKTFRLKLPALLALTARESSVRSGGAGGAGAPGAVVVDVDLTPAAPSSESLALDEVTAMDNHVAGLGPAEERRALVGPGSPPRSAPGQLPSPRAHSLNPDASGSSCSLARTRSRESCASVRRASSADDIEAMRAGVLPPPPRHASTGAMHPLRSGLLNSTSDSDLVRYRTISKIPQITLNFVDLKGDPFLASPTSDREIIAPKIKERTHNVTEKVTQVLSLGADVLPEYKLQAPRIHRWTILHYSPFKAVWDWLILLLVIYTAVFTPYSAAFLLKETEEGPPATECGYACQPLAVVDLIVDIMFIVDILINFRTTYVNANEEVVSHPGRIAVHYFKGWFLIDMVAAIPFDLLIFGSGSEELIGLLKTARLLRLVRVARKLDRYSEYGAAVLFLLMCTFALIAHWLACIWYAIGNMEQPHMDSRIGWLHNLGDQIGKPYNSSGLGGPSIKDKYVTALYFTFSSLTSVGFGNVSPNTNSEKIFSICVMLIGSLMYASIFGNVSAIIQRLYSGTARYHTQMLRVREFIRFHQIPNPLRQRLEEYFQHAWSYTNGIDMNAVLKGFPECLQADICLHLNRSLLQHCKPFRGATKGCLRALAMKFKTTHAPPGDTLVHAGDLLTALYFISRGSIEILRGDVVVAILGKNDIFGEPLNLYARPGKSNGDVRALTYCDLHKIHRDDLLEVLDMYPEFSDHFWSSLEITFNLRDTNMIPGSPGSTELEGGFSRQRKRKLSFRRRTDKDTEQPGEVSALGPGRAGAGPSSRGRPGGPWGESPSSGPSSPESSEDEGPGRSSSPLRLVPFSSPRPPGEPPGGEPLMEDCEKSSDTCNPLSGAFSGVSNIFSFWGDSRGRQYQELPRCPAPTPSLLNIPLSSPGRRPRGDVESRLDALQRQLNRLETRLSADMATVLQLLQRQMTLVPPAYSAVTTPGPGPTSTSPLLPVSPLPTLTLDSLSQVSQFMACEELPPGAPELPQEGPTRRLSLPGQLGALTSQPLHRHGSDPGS
Sequence of Substance-P receptor (P25103 whole entry): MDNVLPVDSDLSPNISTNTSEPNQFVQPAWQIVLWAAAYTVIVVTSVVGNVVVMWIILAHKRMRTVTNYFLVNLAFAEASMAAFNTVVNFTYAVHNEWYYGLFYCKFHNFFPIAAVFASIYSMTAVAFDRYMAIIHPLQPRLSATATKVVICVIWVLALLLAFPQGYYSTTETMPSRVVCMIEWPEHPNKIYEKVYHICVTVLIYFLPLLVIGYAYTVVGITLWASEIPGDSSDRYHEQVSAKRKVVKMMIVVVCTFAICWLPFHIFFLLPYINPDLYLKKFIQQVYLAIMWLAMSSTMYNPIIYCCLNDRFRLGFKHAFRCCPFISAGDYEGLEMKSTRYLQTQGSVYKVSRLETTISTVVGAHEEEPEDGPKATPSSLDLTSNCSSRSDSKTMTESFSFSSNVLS

CCOC(N)=O
Not Active: IC50 [1] | IC50 [2] | Ki [2] | IC50 [3] | Ki [3] | IC50 [4] | IC50 [5] | Ki [5] | IC50 [6] | IC50 [7] | IC50 [8] | Ki [8] | IC50 [9] | Ki [9] | IC50 [10]

CC(=O)O[C@H]1C[C@@H]2CC[C@@H]3[C@H](CC[C@@]4(C)[C@H]3C[C@H]([N+]3(C)CCCCC3)[C@@H]4OC(C)=O)[C@@]2(C)C[C@@H]1N1CCCCC1.[Br-] [VECURONIUM BROMIDE]
Not Active: IC50 [1] | IC50 [2] | Ki [2] | IC50 [3] | Ki [3] | IC50 [4] | IC50 [5] | Ki [5] | IC50 [6] | IC50 [7] | IC50 [8] | Ki [8] | IC50 [9] | Ki [9] | IC50 [10]

C[C@@H]1C[C@H]2[C@@H]3CCC4=CC(=O)C=C[C@]4(C)C3=CC[C@]2(C)[C@H]1C(=O)CN1CCN(c2cc(N3CCCC3)nc(N3CCCC3)n2)CC1 [TIRILAZAD]
Not Active: IC50 [1] | IC50 [2] | Ki [2] | IC50 [3] | Ki [3] | IC50 [4] | IC50 [5] | Ki [5] | IC50 [6] | IC50 [7] | IC50 [8] | Ki [8] | IC50 [9] | Ki [9] | IC50 [10]

C[C@@H](O)[C@H]1C(=O)N2C(C(=O)O)=C(S[C@@H]3CN[C@H](C(=O)N(C)C)C3)[C@H](C)[C@H]12 [MEROPENEM]
Not Active: IC50 [1] | IC50 [2] | Ki [2] | IC50 [3] | Ki [3] | IC50 [4] | IC50 [5] | Ki [5] | IC50 [6] | IC50 [7] | IC50 [8] | Ki [8] | IC50 [9] | Ki [9] | IC50 [10]

CC(C)(C)NC[C@H](O)COc1nsnc1N1CCOCC1 [TIMOLOL]
Not Active: IC50 [1] | IC50 [2] | Ki [2] | IC50 [3] | Ki [3] | IC50 [4] | IC50 [5] | Ki [5] | IC50 [6] | IC50 [7] | IC50 [8] | Ki [8] | IC50 [9] | Ki [9] | IC50 [10]

CC1=C(CC(=O)O)c2cc(F)ccc2/C1=C\c1ccc(S(C)(=O)=O)cc1 [EXISULIND]
Not Active: IC50 [1] | IC50 [2] | Ki [2] | IC50 [3] | Ki [3] | IC50 [4] | IC50 [5] | Ki [5] | IC50 [6] | IC50 [7] | IC50 [8] | Ki [8] | IC50 [9] | Ki [9] | IC50 [10]

COc1ncnc(NS(=O)(=O)c2ccc(N)cc2)c1OC [SULFADOXINE]
Not Active: IC50 [1] | IC50 [2] | Ki [2] | IC50 [3] | Ki [3] | IC50 [4] | IC50 [5] | Ki [5] | IC50 [6] | IC50 [7] | IC50 [8] | Ki [8] | IC50 [9] | Ki [9] | IC50 [10]

CO[C@H]1C[C@@H]2CC[C@@H](C)[C@@](O)(O2)C(=O)C(=O)N2CCCC[C@H]2C(=O)O[C@H]([C@H](C)C[C@@H]2CC[C@@H](O)[C@H](OC)C2)CC(=O)[C@H](C)/C=C(\C)[C@@H](O)[C@@H](OC)C(=O)[C@H](C)C[C@H](C)/C=C/C=C/C=C/1C [SIROLIMUS]
Not Active: IC50 [1] | IC50 [2] | Ki [2] | IC50 [3] | Ki [3] | IC50 [4] | IC50 [5] | Ki [5] | IC50 [6] | IC50 [7] | IC50 [8] | Ki [8] | IC50 [9] | Ki [9] | IC50 [10]

Cc1cn([C@H]2C[C@H](N=[N+]=[N-])[C@@H](CO)O2)c(=O)[nH]c1=O [ZIDOVUDINE]
Not Active: IC50 [1] | IC50 [2] | Ki [2] | IC50 [3] | Ki [3] | IC50 [4] | IC50 [5] | Ki [5] | IC50 [6] | IC50 [7] | IC50 [8] | Ki [8] | IC50 [9] | Ki [9] | IC50 [10]

THIMEROSAL
Not Active: IC50 [1] | Ki [1] | IC50 [2] | Ki [2] | IC50 [3] | Ki [3] | IC50 [4] | Ki [4] | IC50 [5] | Ki [5] | IC50 [6] | Ki [6] | IC50 [7] | Ki [7] | IC50 [8] | Ki [8] | IC50 [9] | Ki [9] | IC50 [10] | Ki [10]

NC[C@H]1O[C@H](O[C@H]2[C@H](O)[C@@H](O[C@H]3O[C@H](CO)[C@@H](O)[C@H](N)[C@H]3O)[C@H](N)C[C@@H]2N)[C@H](N)C[C@@H]1O [TOBRAMYCIN]
Not Active: IC50 [1] | IC50 [2] | Ki [2] | IC50 [3] | Ki [3] | IC50 [4] | IC50 [5] | Ki [5] | IC50 [6] | IC50 [7] | IC50 [8] | Ki [8] | IC50 [9] | Ki [9] | IC50 [10]

O=P(O)(O)C(O)(Cc1cccnc1)P(=O)(O)O [RISEDRONIC ACID]
Not Active: IC50 [1] | IC50 [2] | Ki [2] | IC50 [3] | Ki [3] | IC50 [4] | IC50 [5] | Ki [5] | IC50 [6] | IC50 [7] | IC50 [8] | Ki [8] | IC50 [9] | Ki [9] | IC50 [10]

Nc1ccc(S(=O)(=O)Nc2nccs2)cc1 [SULFATHIAZOLE]
Not Active: IC50 [1] | IC50 [2] | Ki [2] | IC50 [3] | Ki [3] | IC50 [4] | IC50 [5] | Ki [5] | IC50 [6] | IC50 [7] | IC50 [8] | Ki [8] | IC50 [9] | Ki [9] | IC50 [10]

Nc1ccc(S(=O)(=O)Nc2ncccn2)cc1 [SULFADIAZINE]
Not Active: IC50 [1] | IC50 [2] | Ki [2] | IC50 [3] | Ki [3] | IC50 [4] | IC50 [5] | Ki [5] | IC50 [6] | IC50 [7] | IC50 [8] | Ki [8] | IC50 [9] | Ki [9] | IC50 [10]

C[C@]12CC[C@H]3[C@@H](CCC4=CC(=O)CC[C@@]43C)[C@@H]1CC[C@@H]2O [TESTOSTERONE]
Not Active: IC50 [1] | IC50 [3] | Ki [3] | IC50 [4] | IC50 [5] | Ki [5] | IC50 [6] | IC50 [7] | IC50 [8] | Ki [8] | IC50 [9] | Ki [9] | IC50 [10]
